Measured values reported in patent US20240239816A1, “BORONO-PHENYLALANINE DERIVATIVE” (STELLA PHARMA CORPORATION, priority 2021, published 2024).

Assays:
[1] = tested on: human LAT1 and LAT2 highly expressing HEK 293 cell lines; test: Evaluation of LAT1 and LAT2-selective uptake; assay type: cell-based; conditions: (uptake in LAT1 cells / L-BPA uptake in LAT1 cells)/(uptake in LAT2 cells / L-BPA uptake in LAT2 cells); substrate concentration 0.1 mM; relative to L-BPA on the same day
Description: HEK 293 cells that stably highly express human LAT1 and LAT2 respectively were prepared according to the method described in the article of Khunweeraphong, N et al. (Journal of Pharmacology Science, 2012, vol. 119, pp 368-380). A shuttle vector DNA (LAT1: EX-H 4509-M02, LAT2: EX-U0514-M02, manufactured by GeneCopoeia) having ampicillin and neomycin resistance markers and having full-length cDNA of human LAT1 or LAT2 inserted under the promoter of cytomegalovirus (CMV) was constructed. This vector was transfected into HEK 293 cells by a method using Lipofectamine (registered trademark) 2000 (Invitrogen) in accordance with the manufacturer's instructions. Thereafter, the stably expressing cell clone of the transgene was selected by the limiting dilution method in the presence of 0.9 mg/mL Geneticin (registered trademark), and a cell clone in which the uptake of L-boronophenylalanine (L-BPA) was enhanced by about 2 to about 5 times as compared with HEK 293 cells before transfection was obtained. This cell was passaged and used for evaluation of LAT1 and LAT2-selective uptake.
As a method for evaluating cell uptake, the same method as in the article of Khunweeraphong, N et al. (Journal of Pharmacology Science, 2012, vol. 119, pp 368-380) was used. Each of the cells obtained in (1) was used for evaluation. Radioactive isotopes were not used, a substrate concentration was 0.1 mM, and 2 mM BCH (2-amino-2-norbonanecarboxylic acid) was used as an LAT1 and LAT2 inhibitor. The reacted cells were collected with 0.05% Tween 20 and the concentration of the 4-borono-phenylalanine derivative in the cell fluid was determined. Quantification of the 4-borono-phenylalanine derivative in cells was performed in accordance with the method described in the article of Hattori, Y, et al. (Sensors 2017, 17, 2436), using 2-(2-hydroxyphenyl)pyridine (boron sensor 5) as a boron sensor. In the evaluation of cell uptake, in consideration of variations between experiments, the cell uptake was evaluated as a value (LAT1 selectivity) relative to the uptake of L-BPA as a comparative object performed on the same day.
LAT1 selectivity=(quantitative value of uptake of the compound in LAT1 cells/quantitative value of uptake of control L-BPA in LAT1 cells)/(quantitative value of uptake of the compound in LAT2 cells/quantitative value of uptake of control L-BPA in LAT2 cells)

[2] = Single dose toxicity test; assay type: in vivo; conditions: single tail vein injection, 250, 500 and 1000 mg/kg, 5 animals per group, observation period 8 days
Description: In a beaker, 17.6 mL of 1 mol/L NaOH was put, and 24 mL of water for injection was further added and mixed. To this was added 2.52 g of D-sorbitol. After confirming complete dissolution, 17.1 mL of 1 mol/L hydrochloric acid was added to adjust the pH to 7.4 to 7.8. The mixture was transferred to a measuring cylinder, the beaker was washed with water for injection, and the washing liquid was transferred to the measuring cylinder. This operation was repeated as much as possible, and the volume of the liquid in the measuring cylinder was increased to 80 mL while the beaker was washed. The mixture was filtration-sterilized with a filter (Millex GV, pore size: 0.22 μm, Merck, sterilized disposable product), affording a 3.15% D-sorbitol solution.
On the other hand, 10.1 mL of a 1 mol/L aqueous sodium hydroxide solution was put in a beaker, and 13.8 mL of water for injection was further added and mixed. To this were added 2.30 g of test substance and 1.45 g of D-sorbitol. After confirming complete dissolution, 1.36 mL of 1 mol/L hydrochloric acid was added to adjust the pH to 7.4 to 7.8. The mixture was transferred to a measuring cylinder, the beaker was washed with water for injection, and the washing liquid was transferred to the measuring cylinder. […]

Compound | LAT1 selectivity [1] | change due to administration of the test substance (single dose toxicity) [2]
C[C@](N)(Cc1ccc(B(O)O)cc1F)C(=O)O [Example 1, (S)-2-amino-3-(4-borono-2-fluorophenyl)-2-methylpropanoic acid] | twice or more | no serious change due to the administration of the test substance was observed in any of the administration groups
C[C@@](N)(Cc1ccc(B(O)O)cc1F)C(=O)O [Example 2, (R)-2-Amino-3-(4-borono-2-fluorophenyl)-2-methylpropanoic acid] | twice or more | 
Cc1cc(B(O)O)ccc1C[C@](C)(N)C(=O)O [Example 3, (S)-2-Amino-3-(4-borono-2-methylphenyl)-2-methylpropanoic acid] | twice or more | 
Cc1cc(B(O)O)ccc1C[C@@](C)(N)C(=O)O [Example 4, (R)-2-Amino-3-(4-borono-2-methylphenyl)-2-methylpropanoic acid] | twice or more | 
C[C@](N)(Cc1ccc(B(O)O)cc1C(F)(F)F)C(=O)O [Example 5, (S)-2-Amino-3-(4-borono-2-(trifluoromethyl)phenyl)-2-methylpropanoic acid] | twice or more | 
C[C@@](N)(Cc1ccc(B(O)O)cc1C(F)(F)F)C(=O)O [Example 6, (R)-2-Amino-3-(4-borono-2-(trifluoromethyl)phenyl)-2-methylpropanoic acid] | twice or more | 
COc1cc(B(O)O)ccc1C[C@](C)(N)C(=O)O [Example 7, (S)-2-Amino-3-(4-borono-2-methoxyphenyl)-2-methylpropanoic acid] | twice or more | 
C[C@](N)(Cc1ccc(B(O)O)cc1Cl)C(=O)O [Example 9, (S)-2-Amino-3-(4-borono-2-chlorophenyl)-2-methylpropanoic acid] | twice or more | no serious change due to the administration of the test substance was observed in any of the administration groups
C[C@](N)(Cc1c(F)cc(B(O)O)cc1F)C(=O)O [Example 11, (S)-2-Amino-3-(4-borono-2,6-difluorophenyl)-2-methylpropanoic acid] | twice or more | 
C[C@](N)(Cc1cc(Cl)c(B(O)O)cc1F)C(=O)O [Example 13, (S)-2-Amino-3-(4-borono-5-chloro-2-fluorophenyl)-2-methylpropanoic acid] | twice or more | 
C[C@](N)(Cc1ccc(B(O)O)c(F)c1F)C(=O)O [Example 14, (S)-2-Amino-3-(4-borono-2,3-difluorophenyl)-2-methylpropanoic acid] | twice or more | 
C[C@](N)(Cc1ccc(B(O)O)c(F)c1)C(=O)O [Example 15, (S)-2-Amino-3-(4-borono-3-fluorophenyl)-2-methylpropanoic acid] | twice or more | 
C[C@@](N)(Cc1ccc(B(O)O)c(F)c1)C(=O)O [Example 16, (R)-2-Amino-3-(4-borono-3-fluorophenyl)-2-methylpropanoic acid] | twice or more | 
Cc1cc(C[C@](C)(N)C(=O)O)ccc1B(O)O [Example 17, (S)-2-Amino-3-(4-borono-3-methylphenyl)-2-methylpropanoic acid] | twice or more | 
C[C@](N)(Cc1cc(F)c(B(O)O)cc1Cl)C(=O)O [Example 29, (S)-2-Amino-3-(4-borono-2-chloro-5-fluorophenyl)-2-methylpropanoic acid] | twice or more | 
CSc1cc(B(O)O)ccc1C[C@](C)(N)C(=O)O [Example 34, (S)-2-Amino-3-(4-borono-2-(methylthio)phenyl)-2-methylpropanoic acid] | twice or more | 
C[C@](N)(Cc1ccc(B(O)O)cc1C(F)F)C(=O)O [Example 35, (S)-2-Amino-3-(4-borono-2-(difluoromethyl)phenyl)-2-methylpropanoic acid] | twice or more | 
C[C@@](N)(Cc1ccc(B(O)O)cc1C(F)F)C(=O)O [Example 36, (R)-2-Amino-3-(4-borono-2-(difluoromethyl)phenyl)-2-methylpropanoic acid] | twice or more | 
C[C@](N)(Cc1ccc(B(O)O)c(Cl)c1)C(=O)O [Example 37, (S)-2-Amino-3-(4-borono-3-chlorophenyl)-2-methylpropanoic acid] | twice or more | 
N[C@@H](Cc1ccc(B(O)O)cn1)C(=O)O [Example 44, (S)-2-Amino-3-(5-boronopyridin-2-yl)propanoic acid] | twice or more | 
Cc1cc(B(O)O)cnc1C[C@H](N)C(=O)O [Example 49, (S)-2-Amino-3-(5-borono-3-methylpyridin-2-yl)propanoic acid] | twice or more | 
N[C@@H](Cc1ncc(B(O)O)cc1Cl)C(=O)O [Example 50, (S)-2-Amino-3-(5-borono-3-chloropyridin-2-yl)propanoic acid] | twice or more | 
Cc1cc(C[C@H](N)C(=O)O)ncc1B(O)O [Example 51, (S)-2-Amino-3-(5-borono-4-methylpyridin-2-yl)propanoic acid] | twice or more | 
